From the supplement of paper PMC4954754
± gives the uncertainty stated by the source.

How the values were obtained:
Settings in all cases: 18 h
HEK293T-Rex ERSE-FLuc [1] = assay: EC50 for ERSE-FLuc reporter activation
Method: (§1)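 Dose-response of hit compounds in HEK293T-Rex cells stably expressing ERSE-FLuc or XBP1-RLuc reporters, 18 hr treatment, 1536-well; luminescence normalised to 500 nM thapsigargin (100%) and DMSO (0%), fitted to give EC50 (M) and maximal activation; '>' marks EC50 above the top tested dose (~17 µM).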

HEK293T-Rex ERSE-FLuc [2] = assay: maximal ERSE-FLuc activation from dose-response fit, relative to thapsigargin (% of thapsigargin); higher = stronger activation
Method: as §1

HEK293T-Rex XBP1-RLuc [3] = assay: EC50 for XBP1-RLuc reporter activation
Method: as §1

HEK293T-Rex XBP1-RLuc [4] = assay: maximal XBP1-RLuc activation from dose-response fit, relative to thapsigargin (% of thapsigargin); higher = stronger activation
Method: as §1

Structure (SMILES) | EC50 for ERSE-FLuc reporter activation (HEK293T-Rex ERSE-FLuc [1]) [µM] | maximal ERSE-FLuc activation (HEK293T-Rex ERSE-FLuc [2]) | EC50 for XBP1-RLuc reporter activation (HEK293T-Rex XBP1-RLuc [3]) [µM] | maximal XBP1-RLuc activation (HEK293T-Rex XBP1-RLuc [4])
O=C1N/C(=C/c2ccc(O)cc2)C(=O)N1Cc1ccc(Br)cc1 | > 15.8 | 47.9 ± 1.7 | 4.02 | 70.6 ± 14
Oc1ccc(/C=N/Nc2cccc3cccnc23)c(O)c1 | > 16.9 | 36.6 ± 4.9 | 9.41 | 53.6 ± 5.7
CN(C)c1ccc(/C=C(/C#N)C(=O)Nc2ccc(O)cc2)cc1 | > 16.9 | 29.9 ± 4.7 | > 16.9 | 31 ± 2.4
CN1C(=O)/C(=C\c2ccc(O)c(O)c2)SC1=S | > 16.9 | 28 ± 15 | > 16.9 | 40.5 ± 3.6
Nc1ccc2nc(-c3ccc(Br)cc3)[nH]c2c1 | 12.5 | 74.6 ± 19 | 17.3 | 51.4 ± 4.2
Nc1ccc2nc(-c3ccccn3)[nH]c2c1 | > 16.9 | 16.8 ± 4.6 | > 16.9 | 22 ± 0.38
Oc1ccc(-c2csc(-c3cccnc3)n2)cc1O | 7.5 | 71.5 ± 11 | 12.8 | 80.1 ± 5.1
O=C(NCCCn1ccnc1)c1cc(-c2cccs2)on1 | 9.58 | 89.1 ± 3.8 | > 16.9 | 12.1 ± 0.83
Cc1cc(C)nc(/N=C(\N)Nc2ccc(OCc3ccc(Cl)cc3)cc2)n1 | > 14 | 47.3 ± 7.6 | 2.03 | 88.2 ± 3.4
O=c1[nH]c(/C=C2\C=Nc3ccccc32)c(O)n1-c1cccc(Cl)c1 | 2.5 | 67.9 ± 1 | 2.18 | 74.9 ± 7.7
N#Cc1c(NC(=O)/C=C/c2ccco2)sc2c1CCCC2 | > 17 | 22.8 ± 6.6 | > 17 | 5.59 ± 3
Cc1cc(C)c(OCC(=O)N/N=C/c2ccc(O)c(O)c2)c(Br)c1 | > 16.9 | 49.6 ± 5.9 | > 16.9 | 41.1 ± 11
Cc1cc(C)nc(/N=C(\N)Nc2ccc(OCCC(C)C)cc2)n1 | > 15.5 | 45.3 ± 7.7 | > 5.17 | 89.1 ± 9.1
COc1ccc(CCNC(=O)c2cccc(-c3ccc(N4CCOCC4)nc3)c2)cc1 | > 17 | 15.9 ± 4.6 | > 17 | 2.04 ± 0.93
OCCNc1nc(Nc2ccc(Cl)cc2)nc2ccccc12 | 6.19 | 155 ± 12 | 9.68 | 87.4 ± 1.1
COc1ccc(/C=N/NC(=O)c2cccc(F)c2)cc1Br | > 16.9 | 31 ± 5.5 | > 16.9 | 1.14 ± 6.2
COc1ccc(N(C(=O)c2ccccc2)S(=O)(=O)c2cc(OC)ccc2OC)cc1 | 6.69 | 125 ± 14 | 5.82 | 185 ± 8.3
Cc1ccc(O)c(NC(=O)c2cc(C3CC3)on2)c1 | 2.02 | 91.7 ± 12 | > 16.9 | 23.7 ± 1.1
CCOc1cccc(C(=O)Nc2ccc(Br)cn2)c1 | > 15.1 | 23.3 ± 2.1 | > 15.1 | 4.18 ± 0.09
CCN(CC)c1ccc2cc(-c3nc4ccccc4n3C)c(=O)oc2c1 | > 10.6 | 22.8 ± 1.6 | > 10.6 | 2.95 ± 3.5
O=C(NCCc1ccc(O)cc1)c1ccc2nc(-c3csc4ccccc34)sc2c1 | 11.6 | 99.4 ± 20 | 13.3 | 105 ± 13
O=C(CC(=O)Nc1ccc2nc3n(c(=O)c2c1)CCCCC3)NCc1ccco1 | 8.59 | 77.9 ± 9.8 | > 16.9 | 40.7 ± 7.4

Structure (SMILES) | EC50 for ERSE-FLuc reporter activation (HEK293T-Rex ERSE-FLuc [1]) [µM] | maximal ERSE-FLuc activation (HEK293T-Rex ERSE-FLuc [2]) | EC50 for XBP1-RLuc reporter activation (HEK293T-Rex XBP1-RLuc [3]) [µM] | maximal XBP1-RLuc activation (HEK293T-Rex XBP1-RLuc [4])
Fc1ccc(-c2nnc3ccc(N4CCN(c5ccccn5)CC4)nn23)cc1 | > 16.9 | 5.1 ± 4.1 | > 16.9 | 7.7 ± 2.6
Nc1ccccc1NC(=O)c1ccc(Cl)cc1 | 7.9 | 82.8 ± 4.7 | > 17.2 | 34.9 ± 0.91
COc1ccc(-c2nn(-c3ccccc3)cc2/C=C/C(=O)O)cc1[N+](=O)[O-] | > 18.5 | 20.8 ± 4.1 | > 18.5 | 6.98 ± 2.8
Cc1ccc(NC(=O)/C=C/c2ccco2)nc1 | > 16.9 | 17.5 ± 3.4 | > 16.9 | 7.43 ± 1.4
CC(C)NC(=O)c1cc(-c2ccc(O)cc2)on1 | > 16.9 | 1.46 ± 1 | > 16.9 | 0.798 ± 0.58
Oc1cccc(Nc2nc(-c3ccc(O)c(O)c3)cs2)c1 | 12.5 | 83.3 ± 11 | 16.5 | 51.6 ± 3.2
COC(=O)c1c(NC(=O)CCl)sc(C(=O)Nc2cccc([N+](=O)[O-])c2)c1C | > 16.9 | 32.9 ± 4.5 | > 16.9 | 29.6 ± 2.9
Cc1ccc(Nc2nc(N)c3ccccc3n2)cc1Cl | 10 | 111 ± 7.9 | > 16.9 | 48.1 ± 5.2
O=C(N/N=C/c1cccc(O)c1O)c1ccccc1I | > 16.9 | 39.5 ± 4.5 | > 16.9 | 17.8 ± 3.8
Cc1ccc(O)c(NC(=O)CN(C)S(=O)(=O)c2ccc(Cl)cc2)c1 | > 16.9 | 43.4 ± 10 | > 16.9 | 31.4 ± 0.96
COc1cc2ccccc2cc1C(=O)N/N=C/c1cccs1 | > 16.9 | 21.5 ± 3.6 | > 16.9 | 5.33 ± 6.5
Cc1ccc(O)c(-c2cc(C(F)(F)C(F)F)no2)c1 | 7.56 | 79.8 ± 24 | > 16.7 | 23.6 ± 5.9
COc1ccc(C(=O)Nc2nnc(-c3cccs3)s2)cc1 | > 16.9 | 18.8 ± 1.5 | > 16.9 | 1.9 ± 0.9
O=C(N/N=C\C(Br)=C\c1ccccc1)c1n[nH]c2c1CCCC2 | > 16.9 | 17.2 ± 4.7 | > 16.9 | 9.49 ± 5.7
CCCc1cc(C(=O)Nc2cc(C)ccc2O)no1 | 2.84 | 116 ± 9.5 | > 16.9 | 30 ± 2.2
O=C(c1ccccc1)c1c(O)ccc2c(C(=O)c3ccccc3)c(O)ccc12 | > 12.5 | 32.5 ± 3.7 | > 12.5 | 34.9 ± 1.1
CCCCNC(=O)c1cc(-c2ccc(F)cc2)on1 | 12.2 | 68.7 ± 8.5 | > 16.9 | 9.22 ± 4.7
C=CCn1c(N2CCC(C(=O)NCCc3ccc(O)c(O)c3)CC2)nc2ccccc21 | 8.27 | 150 ± 16 | 7.94 | 97.8 ± 31
CN(C)c1ccc(C2C(C#N)=C(N)Oc3c2sc2ccccc32)cc1[N+](=O)[O-] (configuration not stated) | > 17.2 | 15.8 ± 4.9 | > 17.2 | 4.37 ± 1
O=c1[nH]c(/C=C2\C=Nc3ccccc32)c(O)n1-c1ccc(Cl)cc1 | > 16.9 | 44.1 ± 7.8 | 4.87 | 89 ± 4.6
COc1cccc(-c2cc(C(=O)Nc3cc(C)ccc3O)no2)c1 | > 16.9 | 46.2 ± 7.9 | > 16.9 | 19.1 ± 3.5
